Where a name gives a salt, the structure may show the parent alone.
Key:
[1] = molecular target: T1, MAT2A enzyme (Homo sapiens, UniProt P31153); assay: Enzymatic testing method for MAT2A (Biomol Green, OD620); format: biochemical; settings: score by IC50 for inhibiting MAT2A; read-out: MAT2A inhibition score
T1 construct: purchased BPS 71401
Description: • a) A 5×MAT2A test buffer (250 mM Tris-HCl, pH 8.0; 250 mM KCl; 75 mM MgCl2; 0.025% BSA; 0.05% Brij35; 1.5 mM EDTA) was first prepared and partially diluted to 1× for later use; • b) Preparation and addition of MAT2A enzyme (BPS, 71401): the MAT2A enzyme was prepared into 3.674 ng/L by using the 1×MAT2A test buffer (1.67×, final concentration 2.20 ng/L), a BioTek (MultiFlo FX) automatic liquid separator was used, 15 μL of 1.67×MAT2A enzyme solution was added to compound test wells and negative control wells respectively, and 15 μL of 1×MAT2A test buffer was added to blank control wells; • c) Preparation and addition of a compound: a compound to be tested was diluted with DMSO from 10 mM stock solution to 100 μM, a positive drug AGI-24512 was diluted under the same conditions, and the diluted compound and positive drug were automatically sprayed into each well by using a Tecan compound titrator (D300e) according to preset concentration gradients, where the spray volume was little and negligible. The concentration gradient was initially 1 μM, the dilution was implemented by ½ log, and a total of 8 gradients were set. Centrifugation at 2500 rpm for 30 s and incubation at 25° C. for 30 min were performed; • d) Preparation of ATP: 10 mM ATP (Sigma, A7699) was diluted with 1×MAT2A test buffer to 700 μM for later use; • e) Preparation and addition of a substrate and ATP mixture: 5×MAT2A test buffer, 3 μL/well; 750 μM L-methionine (Adamas, 01100469), 2.5 μL/well; 700 μM ATP, 2.5 μL/well; and double distilled water, 2 μL/well. A total amount of required mixture was prepared according to the number of test wells, and 10 μL of the mixture was added to each well by using the BioTek (MultiFlo FX) automatic liquid separator, followed by centrifugation at 2500 rpm for 30 s and reaction at 25° C. for 150 min; • f) Addition of Biomol Green detection reagent: 50 μL of Biomol Green (Enzo, BML-AK111) was added to each well by using the BioTek (MultiFlo FX) automatic liquid separator, followed by centrifugation at 2500 rpm for 30 s and incubation at 25° C. for 20 minutes; • g) After the reaction, OD620 values were read by using a Perkin Elmer (Envision 2105) multifunctional plate reader.
A formula for calculating an inhibition rate was as follows: […]
Wherein, • % Inhibition: inhibition rate % • ODsample: OD620 value in a sample well; • ODmin: representing a mean OD620 value of blank control wells without the enzyme or compound to be tested; • ODmax: representing a mean OD620 value of negative control wells with the enzyme and without the compound.
Then a dose-effect curve log(inhibitor) vs. response-Variable slope was fitted by usingGraphPad Prism 5 software to obtain an IC50 value of compound for MAT2A enzyme inhibition.

[2] = test system: HCT116 MTAP −/− cells; assay: Cell testing method: HCT116 MTAP-/- cell proliferation inhibition (CellTiter-Glo, 120 h); format: cell-based; settings: Homo sapiens, HCT-116; score by IC50 for inhibiting HCT116 MTAP−/− cells
Description: HCT116 MTAP −/− cells (purchased from Horizon Discovery): human colorectal cancer cell lines with MTAP gene deletion were cultured in medium RPMI 1640+10% FBS (Fetal bovine serum). On day 0 of the experiment, the live cell density of the foregoing cells in logarithmic growth phase was adjusted to 5000 cells/ml, the cells were inoculated to a 96-well plate by an amount of 100 μl/well, and a blank group was set in parallel; and the inoculated cell plate was put into a 37° C., 5% CO2 incubator for overnight culture.
On day 1 of the experiment, the overnight cultured cell plate was taken out, the supernatant was discarded, 80 μl of serum-free RPMI 1640 medium was added to each well, and place the cells in an incubator for starvation cultivation for 4 h. The compound to be tested was dissolved in DMSO (dimethyl sulfoxide) to prepare a 10 mM compound stock solution. After starvation, the cell plate was taken out, and 80 μl of RPMI 1640+20% FBS medium was added to each well; the cell plate was placed on an automatic liquid dispenser D300e (Tecan), and a dosing program was set as follows: a maximum concentration of the compound to be tested was 30 μM, the compound was diluted with DMSO by a 3 times concentration gradient, there was a total of 10 concentrations, two duplicate wells were set for each concentration, and the DMSO final concentration in each well of the 96-well plate was 0.3%, v/v. The pre-prepared 10 mM stock solution of the compound to be tested was taken out, and the above dosing program was run for dosing. After the dosing was completed, the cell plate was placed in incubator and culture for 120 h.
On day 6 of the experiment, the cell plate was taken out, 50 μl of CellTiter-Go® (purchased from Promega) was added to each well, and fluorescence signal was measured on Envision (PerkinElmer) according to operation procedures in the manual.
A dose-effect curve: log(inhibitor) vs. response-Variable slope was fitted by using GraphPad Prism 5 software to obtain an IC50 value of the compound for inhibiting cell proliferation inhibition. A formula for calculating an inhibition rate was: […]
Wherein, • Signal value of tested compound: mean fluorescence signal of cells group+medium group+compound group; • Signal value of blank group: mean fluorescence signal of medium group; • Signal value of negative control group: mean fluorescence signal of cells group+medium group.

T1 sequence (P31153 whole entry): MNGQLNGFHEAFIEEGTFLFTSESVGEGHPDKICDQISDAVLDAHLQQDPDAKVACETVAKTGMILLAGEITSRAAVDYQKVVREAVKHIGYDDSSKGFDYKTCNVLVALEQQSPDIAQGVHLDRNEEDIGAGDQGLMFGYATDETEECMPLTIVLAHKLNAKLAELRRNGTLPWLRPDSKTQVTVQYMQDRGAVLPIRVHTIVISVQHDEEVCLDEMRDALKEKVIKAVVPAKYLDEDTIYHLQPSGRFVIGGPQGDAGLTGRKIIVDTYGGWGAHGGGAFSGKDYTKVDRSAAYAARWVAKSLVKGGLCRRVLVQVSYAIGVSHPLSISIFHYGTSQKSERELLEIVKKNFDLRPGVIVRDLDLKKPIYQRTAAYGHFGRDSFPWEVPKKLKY

Row | IC50 [1] | IC50 [2] | SMILES
1 | < 50 nM | < 150 nM | O=c1c(-c2ccc(OC(F)F)cc2)cn2ccc(OCC(F)(F)F)nc2c1-c1ccc(OC(F)F)cc1 [Example 24, 7,9-bis[4-(difluoromethoxy)phenyl]-2-(2,2,2-trifluoroethoxy)-8H-pyrido[1,2-a]pyrimidin-8-one]
2 | < 50 nM | > 1000 nM | Cn1cc2cc(-c3cn4ccc(NCC(F)(F)F)nc4c(-c4ccc5nn(C)cc5c4)c3=O)ccc2n1 [Example 12, 7,9-bis[(2-methyl-2H-indazol-5-yl)]-2-[(2,2,2-trifluoroethyl)amino]-8H-pyrido[1,2-a]pyrimidin-8-one]
3 | < 50 nM | < 150 nM | Cn1cc2cc(-c3cn4ccc(NCC(F)(F)F)nc4c(-c4ccc(OC(F)F)cc4)c3=O)ccc2n1 [Example 9, 9-[4-(difluoromethoxy)phenyl]-7-(2-methyl-2H-indazol-5-yl)-2-[(2,2,2-trifluoroethyl)amino]-8H-pyrido[1,2-a]pyrimidin-8-one]
4 | < 50 nM | < 150 nM | Cn1cc2cc(-c3cn4ccc(C5CC5)nc4c(-c4ccc5c(c4)OC(F)(F)O5)c3=O)ccc2n1 [Example 26, 2-cyclopropyl-9-(2,2-difluoro-1,3-benzodioxol-5-yl)-7-(2-methyl-2H-indazol-5-yl)-8H-pyrido[1,2-a]pyrimidin-8-one]
5 | < 50 nM | < 150 nM | CCOc1ccn2cc(-c3ccc(OC(F)F)cc3)c(=O)c(-c3ccc(OC(F)F)cc3)c2c1 [Example 4]
6 | < 50 nM | 150 to 400 nM | Cn1nc2ccc(-c3cn4ccc(C5CC5)cc4c(-c4ccc5c(c4)OC(F)(F)O5)c3=O)cc2c1N [Example 6, 3-(3-amino-2-methyl-2H-indazol-5-yl)-8-cyclopropyl-1-(2,2-difluoro-1,3-benzodioxol-5-yl) quinolizin-2-one hydrochloride]
7 | 50 to 200 nM | > 1000 nM | O=c1c(-c2ccc(OC(F)F)cc2)cn2ccc(C3CC3)nc2c1-c1ccc2c(c1)OC(F)(F)O2 [Example 27, 2-cyclopropyl-9-(2,2-difluoro-1,3-benzodioxol-5-yl)-7-[4-(difluoromethoxy)phenyl]-8H-pyrido[1,2-a]pyrimidin-8-one]
8 | < 50 nM | < 150 nM | O=c1c(-c2ccc(OC(F)F)cc2)cn2ccc(NCC(F)(F)F)nc2c1-c1ccc(OC(F)F)cc1 [Example 10, 7,9-bis[4-(difluoromethoxy)phenyl]-2-[(2,2,2-trifluoroethyl)amino]-8H-pyrido[1,2-a]pyrimidin-8-one]
9 | < 50 nM | < 150 nM | Cn1cc2cc(-c3cn4ccc(NCC(F)(F)F)nc4c(-c4ccc5c(c4)OC(F)(F)O5)c3=O)ccc2n1 [Example 20, 9-(2,2-difluoro-1,3-benzodioxol-5-yl)-7-(2-methyl-2H-indazol-5-yl)-2-[(2,2,2-trifluoroethyl)amino]-8H-pyrido[1,2-a]pyrimidin-8-one]
10 | < 50 nM | < 150 nM | Cc1cc(NCC(F)(F)F)nc2c(-c3ccc(OC(F)F)cc3)c(=O)c(-c3ccc(OC(F)F)cc3)cn12 [Example 41, 7,9-bis(4-(difluoromethoxy)phenyl)-4-methyl-2-((2,2,2-trifluoroethyl)amino)-8H-pyrido[1,2-a]pyrimidin-8-one]
11 | < 50 nM | < 150 nM | O=c1c(-c2ccc3c(c2)OCO3)cn2ccc(C3CC3)nc2c1-c1ccc2c(c1)OC(F)(F)O2 [Example 32, 7-(2H-1,3-benzodioxol-5-yl)-2-cyclopropyl-9-(2,2-difluoro-1,3-benzodioxol-5-yl)pyrido[1,2-a]pyrimidin-8-one]
12 | < 50 nM | < 150 nM | O=c1c(-c2ccc3c(c2)OCO3)cn2ccc(C3CC3)nc2c1-c1ccc2c(c1)OCO2 [Example 28, 7,9-bis(2H-1,3-benzodioxol-5-yl)-2-cyclopropyl-8H-pyrido[1,2-a]pyrimidin-8-one]
13 | < 50 nM | < 150 nM | O=c1c(-c2ccc(OC(F)F)cc2)cn2ccc(C3CC3)cc2c1-c1ccc(OC(F)F)cc1 [Example 3, 8-cyclopropyl-1,3-bis(4-(difluoromethoxy)phenyl)-2H-quinolizin-2-one]
14 | < 50 nM | 150 to 400 nM | Cc1cn2cc(-c3ccc(OC(F)F)cc3)c(=O)c(-c3ccc(OC(F)F)cc3)c2nc1NCC(F)(F)F [Example 42, 7,9-bis(4-(difluoromethoxy)phenyl)-3-methyl-2-((2,2,2-trifluoroethyl)amino)-8H-pyrido[1,2-a]pyrimidin-8-one]
15 | < 50 nM | < 150 nM | CN1Cc2c3cc(-c4cn5ccc(C6CC6)nc5c(-c5ccc(OC(F)F)cc5)c4=O)ccc3nn2CC12CC2 [Example 38, 2-cyclopropyl-9-(4-(difluoromethoxy)phenyl)-7-(2′-methyl-1′,2′-dihydro-4′H-spiro[cyclopropane-1,3′-pyrazino[1,2-b]indazol]-9′-yl)-8H-pyrido[1,2-a]pyrimidin-8-one]
16 | < 50 nM | 400 to 1000 nM | CN1C(=O)c2c3cc(-c4cn5ccc(NCC(F)(F)F)nc5c(-c5ccc(OC(F)F)cc5)c4=O)ccc3nn2CC12CC2 [Example 15, 9′-{9-[4-(difluoromethoxy)phenyl]-8-oxo-2-[(2,2,2-trifluoroethyl)amino]pyrido[1,2-a]pyrimidin-7-yl}-2′-methyl-4′H-spiro[cyclopropane-1,3′-pyrazino[1,2-b]indazol]-1′-one]
17 | < 50 nM | < 150 nM | COc1ccc(-c2cn3ccc(NCC(F)(F)F)nc3c(-c3ccc(OC)cc3)c2=O)cc1 [Example 11, 7,9-bis[(4-methoxyphenyl)]-2-[(2,2,2-trifluoroethyl)amino]-8H-pyrido[1,2-a]pyrimidin-8-one]
18 | < 50 nM | < 150 nM | O=c1c(-c2ccc3nn4c(c3c2)CNC2(CC2)C4)cn2ccc(C3CC3)nc2c1-c1ccc(OC(F)F)cc1 [Example 39, 2-cyclopropyl-9-(4-(difluoromethoxy)phenyl)-7-(1′,2′-dihydro-4′H-spiro[cyclopropane-1,3′-pyrazino[1,2-b]indazol]-9′-yl)-8H-pyrido[1,2-a]pyrimidin-8-one]

Row | SMILES | IC50 [1] | IC50 [2]
19 | O=C1Cn2nc3ccc(-c4cn5ccc(NCC(F)(F)F)nc5c(-c5ccc(OC(F)F)cc5)c4=O)cc3c2C2(CC2)N1 [Example 16, 9′-{9-[4-(difluoromethoxy)phenyl]-8-oxo-2-[(2,2,2-trifluoroethyl)amino]pyrido[1,2-a]pyrimidin-7-yl}-2′,4′-dihydrospiro[cyclopropane-1,1′-pyrazino[1,2-b]indazol]-3′-one] | < 50 nM | 400 to 1000 nM
